Results taken from patent US20120165304A1, “6,7,8,9-Tetrahydro-5H-1,4,7,10a-tetraaza-cyclohept[f]indene derivatives, pharmaceutical compositions containing these compounds, their use and processes for preparing them” (BOEHRINGER INGELHEIM INTERNATIONAL GMBH, priority 2008, published 2012).

Target: human 5-HT2C receptor (Homo sapiens, UniProt P28335, I156V/I160V/N158S)
Experiment: cell-based

Sequence of human 5-HT2C receptor (P28335 33-458 I156V/N158S/I160V limits assumed): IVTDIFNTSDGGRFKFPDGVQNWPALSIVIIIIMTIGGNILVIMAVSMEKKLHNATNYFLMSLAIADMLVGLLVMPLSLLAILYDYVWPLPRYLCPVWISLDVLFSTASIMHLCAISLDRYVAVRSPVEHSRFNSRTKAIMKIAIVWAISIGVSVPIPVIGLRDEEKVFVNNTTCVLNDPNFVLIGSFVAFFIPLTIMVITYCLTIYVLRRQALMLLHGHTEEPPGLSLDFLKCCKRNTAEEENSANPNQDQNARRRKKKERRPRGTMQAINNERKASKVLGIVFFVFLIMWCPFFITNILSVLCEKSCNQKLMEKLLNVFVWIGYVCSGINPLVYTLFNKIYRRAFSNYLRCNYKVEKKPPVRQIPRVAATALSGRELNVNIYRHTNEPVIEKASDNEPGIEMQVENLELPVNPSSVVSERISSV

SMILES | EC50
CN1CCc2nc3ccnn3c(N3CC(C(=O)NC4CCOCC4)C3)c2CC1 [Example 36.35] | 114 nM
O=C(NCC1CC1)C1CN(c2c3c(nc4ccnn24)CCNCC3)C1 [Example 37.75] | 137 nM
CC1CCCN1C(=O)C1CN(c2c3c(nc4ccnn24)CCNCC3)C1 (stereo not shown) [Example 31.73] | 252 nM
CC(=O)N1CCCN(C(=O)C2CN(c3c4c(nc5ccnn35)CCNCC4)C2)CC1 [Example 37.102] | 67 nM
CCOC1CN(c2c3c(nc4ccnn24)CCNCC3)C1 [Example 20.2] | 658 nM
O=C(C1CN(c2c3c(nc4ccnn24)CCNCC3)C1)N(Cc1ccccc1)Cc1ccc(F)cc1 [Example 31.197] | 122 nM
c1ccc(O[C@H]2CCN(c3c4c(nc5ccnn35)CCNCC4)C2)cc1 [Example 1.46] | 582 nM
CN1CCc2nc3ccnn3c(N3CC(C(=O)N4CCNCC4)C3)c2CC1 [Example 36.57] | 287 nM
c1ccc2sc(C3CN(c4c5c(nc6ccnn46)CCNCC5)C3)nc2c1 [Example 12, 10-(3-Benzothiazol-2-yl-azetidin-1-yl)-6,7,8,9-tetrahydro-5H-1,4,7,10a-tetraaza-cyclohepta[f]indene] | 253 nM
c1ccc2oc(C3CN(c4c5c(nc6ccnn46)CCNCC5)C3)nc2c1 [Example 14, 10-(3-Benzooxazol-2-yl-azetidin-1-yl)-6,7,8,9-tetrahydro-5H-1,4,7,10a-tetraaza-cyclohepta[f]indene] | 678 nM
CN1CCc2nc3ccnn3c(N3CC(C(=O)N4CCNC(=O)C4)C3)c2CC1 [Example 36.14] | 364 nM
CC1(C)CCN(C(=O)C2CN(c3c4c(nc5ccnn35)CCNCC4)C2)CC1 [Example 31.47] | 21 nM
O=C(C1CN(c2c3c(nc4ccnn24)CCNCC3)C1)N1CC[C@@H](F)C1 [Example 31.205] | 116 nM
CC(C)(C)NC1CCN(C(=O)C2CN(c3c4c(nc5ccnn35)CCNCC4)C2)CC1 [Example 37.22] | 2 nM
CCc1cnn2c(N3CC(C(=O)N(C)C)C3)c3c(nc12)CCNCC3 [Example 26, 1-(3-Ethyl-6,7,8,9-tetrahydro-5H-1,4,7,10a-tetraaza-cyclohepta[f]inden-10-yl)-azetidine-3-carboxylic acid dimethylamide] | 10 nM
CO[C@@H]1CCN(C(=O)C2CN(c3c4c(nc5ccnn35)CCN(C)CC4)C2)C1 [Example 36.38] | 86 nM
c1cc2c(c(OC3CN(c4c5c(nc6ccnn46)CCNCC5)C3)c1)CCCC2 [Example 35.25] | 666 nM
CN1CCc2nc3ccnn3c(N3CC(C(=O)NCCC4CCCC4)C3)c2CC1 [Example 36.46] | 143 nM
CC1(C)CCN(C(=O)C2CN(c3c4c(nc5c(Br)cnn35)CCNCC4)C2)CC1 [Example 31.138] | 71 nM
CN1CCc2nc3ccnn3c(N3CC(C(=O)NC4CC(C)(C)NC(C)(C)C4)C3)c2CC1 [Example 36.9] | 379 nM
O=C(C1CN(c2c3c(nc4ccnn24)CCNCC3)C1)N1CCOCC1 [Example 31.17] | 276 nM
CN(c1ccccc1)C1CCN(C(=O)C2CN(c3c4c(nc5ccnn35)CCNCC4)C2)CC1 [Example 37.46] | 2 nM
Cc1cccc2[nH]c(C3CN(c4c5c(nc6ccnn46)CCNCC5)C3)nc12 [Example 34.5] | 246 nM
O=C(NCC(F)(F)F)C1CN(c2c3c(nc4ccnn24)CCNCC3)C1 [Example 37.94] | 228 nM
Cc1ccccc1OCC1CN(c2c3c(nc4ccnn24)CCNCC3)C1 [Example 15.1] | 6 nM
O=C(C1CN(c2c3c(nc4ccnn24)CCNCC3)C1)N1CCc2c1ccc(F)c2F [Example 31.155] | 52 nM
CN(Cc1ccc(-c2ccccc2)cc1)C(=O)C1CN(c2c3c(nc4ccnn24)CCNCC3)C1 [Example 31.82] | 154 nM
CC(C)N1CCN(C(=O)C2CN(c3c4c(nc5ccnn35)CCN(C)CC4)C2)CC1 [Example 36.6] | 67 nM

SMILES | EC50
Fc1ccc2[nH]c(C3CN(c4c5c(nc6ccnn46)CCNCC5)C3)nc2c1 [Example 34.14] | 369 nM
O=C(C1CN(c2c3c(nc4ccnn24)CCNCC3)C1)N1CCNCC1 [Example 37.44] | 2 nM
c1nn2c(N3CCC3)c3c(nc2c1CCC1CC1)CCNCC3 [Example 6.1] | 365 nM
O=C(C1CCCC1)N1CCN(C(=O)C2CN(c3c4c(nc5ccnn35)CCNCC4)C2)CC1 [Example 37.87] | 9 nM
O=C(C1CN(c2c3c(nc4ccnn24)CCNCC3)C1)N1CCC1 [Example 31.7] | 3300 nM
O=C(C1CN(c2c3c(nc4ccnn24)CCNCC3)C1)N1CCc2ccc(Br)cc2C1 [Example 31.209] | 95 nM
COc1ccc(C(O)C2CN(c3c4c(nc5ccnn35)CCNCC4)C2)cc1 (stereo not shown) [Example 19, (4-Methoxy-phenyl)-[1-(6,7,8,9-tetrahydro-5H-1,4,7,10a-tetraaza-cyclohepta[f]inden-10-yl)-azetidin-3-yl]-methanol] | 139 nM
Cn1c(C2CN(c3c4c(nc5ccnn35)CCNCC4)C2)nc2cc(C#N)ccc21 [Example 34.18] | 388 nM
CCCCN1CCCN(C(=O)C2CN(c3c4c(nc5ccnn35)CCN(C)CC4)C2)CC1 [Example 36.36] | 256 nM
c1cnc2ccc(OC3CN(c4c5c(nc6ccnn46)CCNCC5)C3)cc2c1 [Example 35.43] | 207 nM
Cc1cc(OCC2CN(c3c4c(nc5ccnn35)CCNCC4)C2)ccc1F [Example 15.4] | 25 nM
COc1cccc(OC2CN(c3c4c(nc5ccnn35)CCNCC4)C2)c1Cl [Example 35.33] | 90 nM
O=C(C1CN(c2c3c(nc4ccnn24)CCNCC3)C1)N1CCOC(c2ccccc2)C1 (stereo not shown) [Example 31.8] | 94 nM
O=C(C1CN(c2c3c(nc4ccnn24)CCNCC3)C1)N1C[C@@H]2C[C@H]1CN2 [Example 37.28] | 6 nM
O=C(C1CN(c2c3c(nc4ccnn24)CCNCC3)C1)N1CCC2CC2(c2ccccc2)C1 (stereo not shown) [Example 31.233] | 106 nM
Cn1c(C2CN(c3c4c(nc5ccnn35)CCNCC4)C2)nc2cc(Cl)ccc21 [Example 34.3] | 418 nM
O=C(C1CN(c2c3c(nc4ccnn24)CCNCC3)C1)N1CCCC(C2CCCCC2)C1 (stereo not shown) [Example 31.70] | 175 nM
CCOc1ccccc1OC1CN(c2c3c(nc4ccnn24)CCNCC3)C1 [Example 35.37] | 47 nM
Cc1cnn2c(N3CC(C(=O)N4CCc5ccc(C(F)(F)F)cc54)C3)c3c(nc12)CCNCC3 [Example 31.246] | 266 nM
CC(=O)N1CCN(C(=O)C2CN(c3c4c(nc5ccnn35)CCN(C)CC4)C2)CC1 [Example 36.52] | 181 nM
COc1ccc(OC2CN(c3c4c(nc5ccnn35)CCNCC4)C2)c(Br)c1 [Example 35.30] | 40 nM
N#Cc1cccc(OC2CN(c3c4c(nc5ccnn35)CCNCC4)C2)c1 [Example 35.4] | 81 nM
O=C(C1CN(c2c3c(nc4ccnn24)CCNCC3)C1)N1CCC(c2ccc(Cl)cc2)CC1 [Example 31.115] | 55 nM
Fc1ccc(C(F)(F)F)cc1OC1CN(c2c3c(nc4ccnn24)CCNCC3)C1 [Example 35.36] | 90 nM
C#CCN1CCN(C(=O)C2CN(c3c4c(nc5ccnn35)CCNCC4)C2)CC1 [Example 37.39] | 7 nM
CC(C)OCCNC(=O)C1CN(c2c3c(nc4ccnn24)CCNCC3)C1 [Example 37.96] | 111 nM
COc1ccc2cc(OC3CN(c4c5c(nc6ccnn46)CCNCC5)C3)ccc2c1 [Example 35.13] | 1360 nM
